Test results: US20220370463A1, “STABILIZED C-FMS INTRACELLULAR FRAGMENTS (FICD) PROMOTE OSTEOCLAST DIFFERENTIATION AND ARTHRITIC BONE EROSION” (New York Society for the Relief of the Ruptured and …, priority 2019, published 2022)

Experiments:
[1] = system: FICDs (c-FMS intracellular fragments); experiment: FICD generation in M-CSF-cultured human CD14+ cells, immunoblot of whole lysates; format: cell-based; settings: MDL28170 treatment
Experimental: FIGS. 8A-8I show c-FMS expression in synovial macrophages. (A) The levels of M-CSF in synovial fluids from patients with rheumatoid arthritis (RA, n=13) and osteoarthritis (OA, n=8) were measured. (B) Mass spectrometry analysis for proteins from ˜50 kDa bands (red box) identified c-FMS as one of top genes. An image of coomassie blue stained genes showing immunoprecipitated cells lysates with either anti-DDK-tag antibodies or IgG control. (C-G) Human CD14+ cells were cultured with M-CSF (20ng/ml). Immunoblot of c-FMS with different antibodies against C-terminal of c-FMS; (C) C-20, (D) D-8, and (E) #3152. Immunoblot of c-FMS with different antibodies against N-terminal of c-FMS; (F) #61701, (G) H-300. (H-I) Human CD14+ cells were cultured with M-CSF (20 ng/ml) for 8 hours to induce early signals, and then BB94 (10 uM) was added for 2 days. (H) Immunoblot with anti c-FMS and α-tubulin antibodies in whole lysates (n=3). (I) Soluble c-FMS was detected by ELISA (n=3). […] All data are shown as mean±SEM. *; p<0.05 significant by two-tailed, paired t-test (A and I). M: mature form, I: immature form, H: hgh mass, L: low mass.
FIGS. 10A-10F show calpain regulates FICD generation. (A and B) Human CD14+ cells were cultured with M-CSF (20 ng/ml) for 8 hours to induce early signals and then (A) MDL 28170(0, 1, 2, 5 uM) or (B) PD150606 (0, 2, 5 uM) was added for 2 days. […]

[2] = system: human CD14+ cells; experiment: Human osteoclastogenesis assay (TRAP-positive multinuclear cells); format: cell-based; settings: M-CSF, RANKL and MDL28170 for 4 days
Experimental: FIGS. 10A-10F show calpain regulates FICD generation. (A and B) Human CD14+ cells were cultured with M-CSF (20 ng/ml) for 8 hours to induce early signals and then (A) MDL 28170(0, 1, 2, 5 uM) or (B) PD150606 (0, 2, 5 uM) was added for 2 days. Immunoblot with anti c-FMS and α-tubulin antibodies in whole lysates(n=3). (C) Immunoblot of nuclear lysates with c-FMS and Lamin B1 antibodies. Cells were cultured with M-CSF for 12 hours, and then M-CSF was removed. Cells were subsequently treated with or without CaCl2 (10 mM) for an additional 24 hours. (D) Osteoclastogenesis assay. Human CD14+ cells were cultured with M-CSF, RANKL and MDL28170 for 4 days. […] Black scale bar is 100 μm. (E) A table showing the calpain cleavage site in c-FMS predicted by GPS-CCD program. First two calpain cleavage sites in cytoplasmic domains of c-FMS were used for FICD constructs. (F) A schematic diagram of a FICD construct. Representative results from at least three independent experiments.
For human osteoclastogenesis assays, cells were added to 96 well plates in triplicate at a seeding density of 5×10^4 cells per well. Osteoclast precursors were incubated with 20 ng/ml of M-CSF and 40 ng/ml of human soluble RANKL up to 5 days in α-MEM supplemented with 10% FBS and 1% L-glutamine. […] Multinucleated (greater than 3 nuclei), TRAP-positive osteoclasts were counted in triplicate wells. […]

Substance: MDL28170
- L-FICD [1]: decreased
- osteoclast differentiation [2]: decreased
